Experimental data from article PMC4450769, “Placement of oppositely charged aminoacids at a polypeptide termini determines the voltage-controlled braking of polymer transport through nanometer-scale pores” (Scientific Reports, 2015).

Tested on: Staphylococcus aureus α-hemolysin (α-HL) pore
Format: biochemical

Substance: Ac-RRRRRRAAAAAARRRRRR- NH 2 [CP2, control peptide construct with net charge of ~ +6 e− at both N- and C-termini at neutral pH]
- capture by the pore as a function of potential polarity (5 µM): captured by the pore only for positive potentials
- association with and block of the α-HL pore at negatively applied potential (pH 7.3): does not associate and block
